Data on eight compounds can be found in US5648259A, “Polypeptides having NMDA receptor activity, nucleic acids encoding those polypeptides and applications” (priority 1992, dated 1997).

Assay [1] relates to GR33 polypeptide SEQ ID No. 2. Briefly: Pharmacological and electrophysiological study of Xenopus eggs microinjected with GR33 mRNA (induced current under applied potential). It counts as cell-based, rat. Particulars: for effect on response induced by NMDA (200 μM): antagonist applied (200 μM) simultaneously with NMDA; for effect of competitive antagonist on responses to NMDA: concentration not given. The procedure:
The cDNA fragment isolated in Example 2 was transcribed into mRNA and microinjected into Xenopus eggs. The microinjected eggs thereby obtained were then tested for their capacity to bind certain labelled NMDA receptor ligands, or for their behaviour with respect to modulators of NMDA receptors.
The plasmid containing the 1.7-kb cDNA coding for the GR33 polypeptide SEQ ID No. 2 was linearized in the presence of the enzyme SmaI, and then subjected to a transcription step in the presence of phage T7 RNA polymerase. Transcription was performed using the Stratagene Kit according to the manufacturer's recommendations.
The synthetic RNA obtained above, dissolved in sterile water, was used (5 ng) for injection into mature Xenopus eggs (stages V and VI) in a volume of 50 nl. The eggs were then maintained for 3 days at 19° C. in multi well plates in a Barth medium supplemented with antibiotics (Miledi and Sumikawa, Biomed. Res. 3 (1982) 390).
The eggs thereby obtained were then tested for the presence of functional NMDA receptors at their surface. For this purpose, the eggs were transferred to modified OR-2 medium lacking magnesium, of composition: 88 mM NaCl, 2.5 mM KCl, 1 mM CaCl2, 10 mM HEPES buffer, pH 7.4 adjusted with sodium hydroxide. The different drugs (ligands or modulators) were applied by perfusion (10 ml/min) for 10-30 seconds under an applied potential difference of -80 or -90 mV.

The test system of assay [2] is GR33 polypeptide SEQ ID No. 2. The assay is described as above. It counts as cell-based, rat.
In assay [3] the test system is known NMDA receptors. Particulars: cited from earlier work.

pEC50: −log10 of the molar value.

For the compound `N[C@H](CCCP(=O)(O)O)C(=O)O` [AP5, D-2-amino-5-phosphonovaleric acid], in assay [1], the “effect on response induced by NMDA (200 μM)” value (from here on “effect on response induced”) is on record as “abolished” and the “effect of competitive antagonist on responses to NMDA” value was “reduced”. Consider `N[C@H](CCCCCP(=O)(O)O)C(=O)O` [AP7, D-2-amino-7-phosphonoheptanoic acid], for which, in assay [1], the “effect on response induced” value is listed as “abolished” and the “effect of competitive antagonist on responses to NMDA” value is on record as “reduced”. In the case of `CN[C@H](CC(=O)O)C(=O)O` [NMDA, N-methyl-D-aspartate], the pEC50 in assay [1] (GR33 expressed in Xenopus eggs, read-out: NMDA concentration giving 50% of the maximum response (ED50)) is approximately 5.00.

Take `[Ca+2]` [calcium]: the “effect of calcium on GR33 activity” value in assay [1] is “inhibitory effect”. Also, the “effect on response induced” value in assay [2] (external calcium concentration increased to 2.5 mM) is on record as “decreased”. In addition, in assay [3], the “effect on activity of known NMDA receptors” value was “stimulates”.

As to `N[C@@H](CCC(=O)O)C(=O)O` [glutamate, Glutamic acid], in assay [1], the “strength of response among excitatory amino acids tested (glutamate, kainate, quisqualate, homocysteate)” value is “strongest responses”. For the same compound, the “induction of inward current” value in assay [1] (glutamate 0.1-1 mM, perfusion 10-30 s, -80 or -90 mV) is “induces an inward current”. On to `C=C(C)[C@H]1CN[C@H](C(=O)O)[C@H]1CC(=O)O` [kainate], for which, in assay [1] (kainate), the “induction of inward current” value is “little or no effect”. On to `[Mg+2]` [magnesium], for which the “inhibitory effect of magnesium on GR33 activity” value in assay [1] is 30-70%. In addition, the “effect on response induced” value in assay [2] (magnesium 200 μM added to the medium) was “decreased”. The “effect on activity of known NMDA receptors” value in assay [3] is listed as “completely inhibits”. Regarding `N[C@@H](Cn1oc(=O)[nH]c1=O)C(=O)O` [quisqualate], the “induction of inward current” value in assay [1] (quisqualate 50 μM) is “little or no effect”.
